Measured values: ChEMBL document CHEMBL1148258, “Synthesis of OSW-1 analogs with modified side chains and their antitumor activities” (Bioorg Med Chem Lett, 2004)

How the values were obtained:
Assay type in all cases: functional, cell-based
[1] = tested on: BEL-7404 tumor cell line; assay: In vitro antitumor activity of compound against 7404 cell line (human liver carcinoma cells)
[2] = tested on: AGS; assay: In vitro antitumor activity of compound against AGS cell line (human stomach cancer cells)
[3] = tested on: MCF7; assay: In vitro antitumor activity of compound against MCF-7 cell line (human breast cancer cells)

Compound	IC50 ([1]; Homo sapiens, BEL-7404)	IC50 ([2]; Homo sapiens, AGS)	IC50 ([3]; Homo sapiens, MCF7)	IC50 ([1]; bel-7404)	IC50 ([2]; ags)	IC50 ([3]; mcf7)
COc1ccc(C(=O)OC2C(OC3C(O)COC(O[C@H]4CC5C6CC=C7C[C@@H](O)CC[C@]7(C)C6CC([C@H](C)C(=O)CCC(C)C)[C@]5(C)[C@@H]4O)C3OC(C)=O)OCC(O)C2O)cc1 (stereo partly drawn)	100 nM	1420 nM	270 nM			
COc1ccc(C(=O)OC2C(OC3C(O)COC(O[C@H]4CC5C6CC=C7C[C@@H](O)CC[C@]7(C)C6CC([C@H](C)CCCC(C)C)[C@]5(C)[C@@H]4O)C3OC(C)=O)OCC(O)C2O)cc1 (stereo partly drawn)	63 nM	1380 nM	60 nM			
CCCC(=O)[C@@H](C)C1CC2C(CC=C3C[C@@H](O)CC[C@@]32C)C2C[C@H](OC3OCC(O)C(OC4OCC(O)C(O)C4OC(=O)c4ccc(OC)cc4)C3OC(C)=O)[C@@H](O)[C@]21C (stereo partly drawn)	32 nM	1920 nM	20 nM			
COc1ccc(C(=O)OC2C(OC3C(O)COC(O[C@H]4CC5C6CC=C7C[C@@H](O)CC[C@]7(C)C6CC([C@H](C)C(O)CCC(C)C)[C@]5(C)[C@@H]4O)C3OC(C)=O)OCC(O)C2O)cc1 (stereo partly drawn)	1860 nM	7260 nM	1790 nM			
COc1ccc(C(=O)OC2C(OC3C(O)COC(O[C@H]4CC5C6CC=C7C[C@@H](O)CC[C@]7(C)C6CC([C@H](C)C(C)=O)[C@]5(C)[C@@H]4O)C3OC(C)=O)OCC(O)C2O)cc1 (stereo partly drawn)	2900 nM	6980 nM	6610 nM			
CISPLATIN				8370 nM	24100 nM	18700 nM
